Measured values from the supplement of paper PMC10307832.

Key:
Assay in all cases: relative viability (nuclei count vs DMSO), 5 days (fraction); higher = more cells survive
[1] = compound: CCN(CC)CCNC(=O)c1c(C)[nH]c(/C=C2\C(=O)Nc3ccc(F)cc32)c1C [Sunitinib] + CC(C)C[C@H](NC(=O)[C@H](Cc1ccccc1)NC(=O)c1cnccn1)B(O)O [Bortezomib] (partner 0.002 µM)
Outline: (§1)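 Five library-drug doses in √10 steps were combined with a fixed anchor-drug dose, or a single drug was given alone, by pin tool to lung cancer cell lines in 1536-well plates the day after seeding. Nuclei were stained and counted after 5 days. Relative viability is the nuclei count in treated wells over that in vehicle wells, taken as the median of duplicate plates.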

[2] = compound: CCN(CC)CCNC(=O)c1c(C)[nH]c(/C=C2\C(=O)Nc3ccc(F)cc32)c1C [Sunitinib] + CCNC(=O)c1noc(-c2cc(C(C)C)c(O)cc2O)c1-c1ccc(CN2CCOCC2)cc1 [Luminespib] (partner 0.01 µM)
Outline: as §1

[3] = compound: CCN(CC)CCNC(=O)c1c(C)[nH]c(/C=C2\C(=O)Nc3ccc(F)cc32)c1C [Sunitinib] + CC(=O)c1c(C)c2cnc(Nc3ccc(N4CCNCC4)cn3)nc2n(C2CCCC2)c1=O [Palbociclib] (partner 0.5 µM)
Outline: as §1

[4] = compound: CCN(CC)CCNC(=O)c1c(C)[nH]c(/C=C2\C(=O)Nc3ccc(F)cc32)c1C [Sunitinib] + Cc1nc(Nc2ncc(C(=O)Nc3c(C)cccc3Cl)s2)cc(N2CCN(CCO)CC2)n1 [Dasatinib] (partner 0.075 µM)
Outline: as §1

Row | Cell Line | relative viability ([1]; first compound 0.02 µM) | relative viability ([1]; first compound 0.06325 µM) | relative viability ([1]; first compound 0.2 µM) | relative viability ([1]; first compound 2 µM) | relative viability ([2]; first compound 0.02 µM) | relative viability ([2]; first compound 0.06325 µM) | relative viability ([2]; first compound 0.2 µM) | relative viability ([2]; first compound 0.6325 µM) | relative viability ([2]; first compound 2 µM) | relative viability ([3]; first compound 0.02 µM) | relative viability ([3]; first compound 0.06325 µM) | relative viability ([3]; first compound 0.2 µM) | relative viability ([3]; first compound 0.6325 µM) | relative viability ([3]; first compound 2 µM) | relative viability ([4]; first compound 0.02 µM) | relative viability ([4]; first compound 0.06325 µM) | relative viability ([4]; first compound 0.2 µM) | relative viability ([4]; first compound 0.6325 µM) | relative viability ([4]; first compound 2 µM) | relative viability ([1]; first compound 0.6325 µM)
1 | HCC-827 | 1.05 | 1.15 | 1.04 | 1.12 | 0.572 | 0.377 | 0.606 | 0.751 | 0.554 | 0.487 | 0.506 | 0.542 | 0.478 | 0.534 | 0.259 | 0.284 | 0.336 | 0.279 | 0.342 | –
2 | NCI-H2228 | 1.04 | 1.14 | 1.22 | 1 | 0.138 | 0.145 | 0.148 | 0.177 | 0.114 | 0.829 | 0.942 | 1.15 | 1.16 | 0.693 | 0.526 | 0.607 | 0.613 | 0.494 | 0.408 | 1.15
3 | UMC-11 | 0.61 | – | 0.841 | 0.896 | 1.01 | 1.02 | 1.14 | 1.1 | 0.943 | 0.339 | 0.386 | 0.379 | 0.351 | 0.33 | 0.454 | 0.525 | 0.584 | 0.525 | 0.424 | 0.762
4 | NCI-H2342 | – | – | – | – | 0.658 | 0.67 | 0.868 | 0.778 | 0.838 | 0.446 | 0.541 | 0.566 | 0.549 | 0.579 | 0.327 | 0.288 | 0.301 | 0.338 | 0.336 | –
5 | ABC-1 | 0.294 | 0.309 | 0.297 | 0.312 | 0.407 | 0.609 | 0.533 | 0.622 | 0.861 | 0.623 | 0.57 | 0.609 | 0.763 | 0.724 | 0.561 | 0.609 | 0.495 | 0.513 | 0.49 | 0.289
6 | HARA | 1 | 1.17 | 1.32 | 1.14 | 0.67 | 0.819 | 0.536 | 0.882 | 0.651 | 0.268 | 0.257 | 0.201 | 0.246 | 0.275 | 0.2 | 0.254 | 0.278 | 0.286 | 0.302 | 1.22
7 | HCC-78 | 0.508 | 0.554 | 0.518 | 0.494 | – | – | – | – | – | 0.486 | 0.504 | 0.498 | 0.472 | 0.526 | 0.39 | 0.313 | 0.329 | 0.315 | 0.358 | 0.464
8 | NCI-H1792 | 0.93 | 0.924 | 1.09 | 0.981 | – | 0.38 | 0.622 | 0.483 | 0.426 | 0.627 | 0.661 | 0.763 | 0.612 | 0.734 | 0.678 | 0.799 | 1.02 | 0.754 | 0.74 | 0.99
9 | NCI-H2405 | 0.997 | 0.924 | 1.09 | 1 | 0.672 | 0.616 | 0.854 | 0.947 | 0.722 | 0.495 | 0.581 | 0.546 | 0.494 | 0.587 | 0.214 | 0.206 | 0.224 | 0.23 | 0.212 | 1.08
10 | BEN | 0.769 | 0.904 | 0.757 | 0.733 | 0.414 | 0.453 | 0.396 | 0.53 | 0.333 | 0.487 | 0.467 | 0.452 | 0.445 | 0.496 | 0.31 | 0.301 | 0.277 | 0.38 | 0.309 | 0.784
11 | Calu-6 | 0.979 | – | 1.08 | 1.09 | – | – | – | – | – | – | – | – | – | – | – | – | – | – | – | 1.2
12 | RERF-LC-KJ | 0.994 | – | 1.26 | 1.09 | 1.02 | 1.25 | 1.35 | 1.4 | 1.14 | 1.07 | 1.05 | 1.03 | 0.996 | 1.21 | 0.768 | 0.897 | 0.832 | 0.821 | 0.847 | 1.03
13 | NCI-H1563 | 0.752 | 0.918 | 0.897 | 0.771 | 0.54 | 0.566 | 0.5 | 0.517 | 0.479 | – | – | – | – | – | 0.487 | 0.505 | 0.441 | 0.422 | 0.489 | 0.906
14 | SK-MES-1 | – | – | – | – | 0.729 | 0.708 | 0.795 | – | 0.7 | 0.309 | 0.322 | 0.363 | 0.397 | 0.388 | 0.354 | 0.457 | 0.341 | 0.319 | 0.308 | –
15 | EBC-1 | 0.475 | 0.573 | 0.65 | 0.534 | – | – | – | – | – | – | – | – | – | – | – | – | – | – | – | 0.532
16 | NCI-H1793 | – | – | – | – | 0.19 | 0.166 | 0.165 | 0.191 | 0.166 | – | 0.307 | 0.311 | 0.299 | 0.319 | 0.397 | 0.366 | 0.429 | 0.444 | 0.346 | –
17 | HCC-366 | 0.98 | 1.05 | 1.04 | 0.989 | – | – | – | – | – | 0.342 | 0.393 | 0.652 | 0.413 | 0.409 | 0.526 | 0.645 | 0.622 | 0.668 | 0.574 | 1.15
18 | NCI-H2170 | – | – | – | – | 0.642 | 0.586 | 0.729 | 0.686 | 0.565 | 0.392 | 0.376 | 0.422 | 0.379 | 0.421 | 0.505 | 0.653 | 0.656 | 0.548 | 0.544 | –
19 | NCI-H1299 | 0.999 | 1.06 | 1.01 | 1 | – | – | – | – | – | – | – | – | – | – | – | – | – | – | – | –
20 | NCI-H1395 | – | – | – | – | 0.72 | 0.375 | 0.723 | 0.706 | 0.602 | 0.638 | 0.625 | 0.649 | 0.745 | 0.619 | 0.394 | 0.463 | 0.453 | 0.406 | 0.266 | –
21 | NCI-H358 | – | – | – | – | 0.375 | 0.304 | 0.564 | 0.307 | 0.242 | 0.138 | 0.158 | 0.138 | 0.132 | 0.125 | 0.151 | 0.187 | 0.182 | 0.19 | 0.174 | –
